Laboratory results from US20250064941A1, “SIGLEC LIGANDS, CONJUGATES, AND METHODS OF USE THEREOF” (Osprey Biopharmaceuticals, Inc., priority 2023, published 2025).

Experiments:
cynomolgus Siglec-2/CD22 = cynomolgus Siglec-2/CD22 (Macaca fascicularis, UniProt A0A2K5WCZ6); assay: biochemical; assay type: binding; conditions: SPR, steady-state analysis; read-out: Affinity cyno CD22
Outline: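 Compound binding measured by steady-state SPR analysis, 120 s dissociation, in HEPES-NaCl-Tween buffer pH 7.5 containing 1% DMSO, DMSO solvent-corrected. Surface: cyno CD22, sialic acids first stripped by SialoExo for 4 h at 37° C., then amine-coupled onto CM5.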

[1] = target: T1, mouse Siglec-2-Fc-Avi (CD22) (Mus musculus, UniProt P35329); assay: SPR binding affinity to mouse CD22; conditions: steady-state analysis
T1 construct: made in house
T1 sequence (P35329 22-708 limits assumed): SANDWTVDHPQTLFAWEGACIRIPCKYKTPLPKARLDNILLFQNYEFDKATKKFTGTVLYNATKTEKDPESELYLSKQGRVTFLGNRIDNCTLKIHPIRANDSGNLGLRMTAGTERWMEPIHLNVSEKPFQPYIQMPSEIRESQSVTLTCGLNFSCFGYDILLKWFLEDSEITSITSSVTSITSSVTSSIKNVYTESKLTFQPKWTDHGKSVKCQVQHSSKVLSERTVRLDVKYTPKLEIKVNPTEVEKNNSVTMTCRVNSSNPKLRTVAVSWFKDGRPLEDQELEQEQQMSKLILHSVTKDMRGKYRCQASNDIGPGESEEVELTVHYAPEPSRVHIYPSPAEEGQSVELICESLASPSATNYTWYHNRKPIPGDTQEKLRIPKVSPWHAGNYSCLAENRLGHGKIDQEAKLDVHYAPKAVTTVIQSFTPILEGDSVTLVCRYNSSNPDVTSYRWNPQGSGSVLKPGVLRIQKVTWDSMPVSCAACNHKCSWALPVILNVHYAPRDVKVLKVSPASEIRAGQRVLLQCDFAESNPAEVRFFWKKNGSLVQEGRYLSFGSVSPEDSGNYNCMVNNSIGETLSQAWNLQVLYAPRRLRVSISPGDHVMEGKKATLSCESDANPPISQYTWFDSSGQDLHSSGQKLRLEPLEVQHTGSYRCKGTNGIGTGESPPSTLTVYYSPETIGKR
Outline: (§1)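 Native sialic acid residues are removed from the receptor enzymatically (4 hours at 37° C.) prior to streptavidin capture of the biotinylated protein. Ligand compounds then flow over in HEPES-buffered saline, pH 7.5, containing 0.05% Tween-20 and 1% DMSO, and binding is evaluated at steady state.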

[2] = target: T2, human Siglec-2/CD22 protein (Homo sapiens, UniProt P20273); assay: SPR binding affinity to human CD22; conditions: steady-state analysis
T2 construct: purchased Acro Biosystems SI2-H82E3
T2 sequence (P20273 20-847): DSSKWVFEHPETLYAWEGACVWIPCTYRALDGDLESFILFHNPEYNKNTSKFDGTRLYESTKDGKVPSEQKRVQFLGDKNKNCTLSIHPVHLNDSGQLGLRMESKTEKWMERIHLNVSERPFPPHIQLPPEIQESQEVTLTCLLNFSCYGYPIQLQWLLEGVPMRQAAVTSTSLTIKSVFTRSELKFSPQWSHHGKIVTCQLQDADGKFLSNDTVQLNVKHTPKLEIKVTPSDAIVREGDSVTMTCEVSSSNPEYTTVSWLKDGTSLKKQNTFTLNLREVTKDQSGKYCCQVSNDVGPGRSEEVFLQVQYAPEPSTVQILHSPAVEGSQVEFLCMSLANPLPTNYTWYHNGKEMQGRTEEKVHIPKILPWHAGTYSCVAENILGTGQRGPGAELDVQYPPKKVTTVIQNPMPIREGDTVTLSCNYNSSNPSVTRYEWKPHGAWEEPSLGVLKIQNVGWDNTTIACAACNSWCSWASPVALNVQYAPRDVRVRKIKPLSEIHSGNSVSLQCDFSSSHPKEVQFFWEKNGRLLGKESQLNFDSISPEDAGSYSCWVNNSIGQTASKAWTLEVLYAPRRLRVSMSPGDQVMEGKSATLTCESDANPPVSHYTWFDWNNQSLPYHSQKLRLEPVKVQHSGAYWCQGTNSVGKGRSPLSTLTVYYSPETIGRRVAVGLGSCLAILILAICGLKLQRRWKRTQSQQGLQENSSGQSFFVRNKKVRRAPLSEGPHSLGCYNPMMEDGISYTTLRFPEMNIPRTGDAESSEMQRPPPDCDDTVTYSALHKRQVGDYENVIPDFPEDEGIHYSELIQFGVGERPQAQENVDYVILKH
Outline: as §1

Sequence of cynomolgus Siglec-2/CD22 (A0A2K5WCZ6 entry or part of it): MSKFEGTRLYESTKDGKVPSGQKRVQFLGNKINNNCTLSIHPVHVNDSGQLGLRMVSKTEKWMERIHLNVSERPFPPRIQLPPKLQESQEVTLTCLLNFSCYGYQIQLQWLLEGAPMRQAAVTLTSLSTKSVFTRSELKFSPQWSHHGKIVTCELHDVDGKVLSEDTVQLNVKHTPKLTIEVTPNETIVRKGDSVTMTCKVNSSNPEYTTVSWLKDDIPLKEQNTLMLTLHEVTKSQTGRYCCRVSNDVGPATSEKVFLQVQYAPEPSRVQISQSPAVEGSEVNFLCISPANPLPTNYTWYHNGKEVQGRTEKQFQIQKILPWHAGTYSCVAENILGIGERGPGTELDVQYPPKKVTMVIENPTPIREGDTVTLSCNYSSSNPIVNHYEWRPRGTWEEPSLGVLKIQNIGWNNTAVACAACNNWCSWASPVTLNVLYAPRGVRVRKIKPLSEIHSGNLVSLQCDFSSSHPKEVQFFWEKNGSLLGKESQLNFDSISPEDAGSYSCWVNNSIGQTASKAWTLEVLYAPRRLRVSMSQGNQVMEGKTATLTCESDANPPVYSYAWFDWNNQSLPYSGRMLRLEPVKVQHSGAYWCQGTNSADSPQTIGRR

Kd (cynomolgus Siglec-2/CD22) [µM] | Kd [1] [µM] | Kd [2] [µM] | Structure (SMILES)
< 1 | < 1 | < 1 | C#CCNc1c(NCCCCCCO[C@]2(C(=O)O)C[C@H](O)[C@@H](NC(N)=O)[C@H]([C@H](O)[C@H](O)CNC(=O)Cc3ccc(-c4ccccc4)cc3)O2)c(=O)c1=O [Compound 224, (2R,4S,5R,6R)-6-((1R,2R)-3-(2-([1,1′-biphenyl]-4-yl)acetamido)-1,2-dihydroxypropyl)-2-((6-((3,4-dioxo-2-(prop-2-yn-1-ylamino)cyclobut-1-en-1-yl)amino)hexyl)oxy)-4-hydroxy-5-ureidotetrahydro-2H-pyran-2-carboxylic acid]
< 1 | < 1 | < 1 | C#CCCOc1ccc(CS[C@]2(C(=O)O)C[C@H](O)[C@@H](NC(=O)CO)[C@H]([C@H](O)[C@H](O)CNC(=O)Cc3ccc(-c4ccc(O)cc4)cc3)O2)cc1 [Compound 64, (2S,4S,5R,6R)-2-((4-(but-3-yn-1-yloxy)benzyl)thio)-6-((1R,2R)-1,2-dihydroxy-3-(2-(4′-hydroxy-[1,1′-biphenyl]-4-yl)acetamido)propyl)-4-hydroxy-5-(2-hydroxyacetamido)tetrahydro-2H-pyran-2-carboxylic acid]
> 10 | > 10 | 1 to 10 | C#CCOCCOCCO[C@]1(C(=O)O)C[C@H](O)[C@@H](NC(=O)CO)[C@H]([C@H](O)[C@H](O)CNC(=O)Cc2ccc(-c3ccccc3)c(O)c2)O1 [Compound 66, (2R,4S,5R,6R)-6-((1R,2R)-1,2-dihydroxy-3-(2-(2-hydroxy-[1,1′-biphenyl]-4-yl)acetamido)propyl)-4-hydroxy-5-(2-hydroxyacetamido)-2-(2-(2-(prop-2-yn-1-yloxy)ethoxy)ethoxy)tetrahydro-2H-pyran-2-carboxylic acid]
1 to 10 | > 10 | 1 to 10 | C#CCOCCCCCCO[C@]1(C(=O)O)C[C@H](O)[C@@H](NC(=O)COC)[C@H]([C@H](O)[C@H](O)CNC(=O)Cc2ccc(Cl)cc2)O1 [Compound 192, (2R,4S,5R,6R)-6-((1R,2R)-3-(2-(4-chlorophenyl)acetamido)-1,2-dihydroxypropyl)-4-hydroxy-5-(2-methoxyacetamido)-2-((6-(prop-2-yn-1-yloxy)hexyl)oxy)tetrahydro-2H-pyran-2-carboxylic acid]
< 1 | 1 to 10 | 1 to 10 | C#CCOCCCCCCO[C@]1(C(=O)O)C[C@H](O)[C@@H](NC(=O)C(=O)NC)[C@H]([C@H](O)[C@H](O)CNC(=O)Cc2ccc(Cl)cc2)O1 [Compound 189, (2R,4S,5R,6R)-6-((1R,2R)-3-(2-(4-chlorophenyl)acetamido)-1,2-dihydroxypropyl)-4-hydroxy-5-(2-(methylamino)-2-oxoacetamido)-2-((6-(prop-2-yn-1-yloxy)hexyl)oxy)tetrahydro-2H-pyran-2-carboxylic acid]
> 10 | > 10 | > 10 | C#CCOCCOCCO[C@]1(C(=O)O)C[C@H](O)[C@@H](NC(=O)CO)[C@H]([C@H](O)[C@H](O)CNC(=O)CCCCCCCCCCCCCCC)O1 [Compound 13, (2R,4S,5R,6R)-6-((1R,2R)-1,2-dihydroxy-3-palmitamidopropyl)-4-hydroxy-5-(2-hydroxyacetamido)-2-(2-(2-(prop-2-yn-1-yloxy)ethoxy)ethoxy)tetrahydro-2H-pyran-2-carboxylic acid]
< 1 | < 1 | < 1 | C#CCCCCNC(=O)CCCCCCO[C@]1(C(=O)O)C[C@H](O)[C@@H](NC(=O)CO)[C@H]([C@H](O)[C@H](O)CNC(=O)Cc2ccc(Cl)cc2)O1 [Compound 96, (2R,4S,5R,6R)-6-((1R,2R)-3-(2-(4-chlorophenyl)acetamido)-1,2-dihydroxypropyl)-2-((7-(hex-5-yn-1-ylamino)-7-oxoheptyl)oxy)-4-hydroxy-5-(2-hydroxyacetamido)tetrahydro-2H-pyran-2-carboxylic acid]
> 10 | > 10 | 1 to 10 | C#CCOCCOCCO[C@]1(C(=O)O)C[C@H](O)[C@@H](NC(=O)CO)[C@H]([C@H](O)[C@H](O)CNC(=O)Cc2ccc(-c3ccccc3)nc2)O1 [Compound 79, (2R,4S,5R,6R)-6-((1R,2R)-1,2-dihydroxy-3-(2-(6-phenylpyridin-3-yl)acetamido)propyl)-4-hydroxy-5-(2-hydroxyacetamido)-2-(2-(2-(prop-2-yn-1-yloxy)ethoxy)ethoxy)tetrahydro-2H-pyran-2-carboxylic acid]
1 to 10 | 1 to 10 | 1 to 10 | C#CCOCCOCCO[C@]1(C(=O)O)C[C@H](O)[C@@H](NC(=O)CO)[C@H]([C@H](O)[C@H](O)CNC(=O)Cc2ccc(C)cc2)O1 [Compound 175, (2R,4S,5R,6R)-6-((1R,2R)-1,2-dihydroxy-3-(2-(p-tolyl)acetamido)propyl)-4-hydroxy-5-(2-hydroxyacetamido)-2-(2-(2-(prop-2-yn-1-yloxy)ethoxy)ethoxy)tetrahydro-2H-pyran-2-carboxylic acid]
< 1 | < 1 | < 1 | C#CCOCCCCCCO[C@]1(C(=O)O)C[C@H](O)[C@@H](NC(C)=S)[C@H]([C@H](O)[C@H](O)CNC(=O)Cc2ccc(Cl)cc2)O1 [Compound 26, (2R,4S,5R,6R)-6-((1R,2R)-3-(2-(4-chlorophenyl)acetamido)-1,2-dihydroxypropyl)-5-ethanethioamido-4-hydroxy-2-((6-(prop-2-yn-1-yloxy)hexyl)oxy)tetrahydro-2H-pyran-2-carboxylic acid]
1 to 10 | 1 to 10 | < 1 | C#CCOc1ccc(CO[C@]2(C(=O)O)C[C@H](O)[C@@H](NC(=O)CO)[C@H]([C@H](O)[C@H](O)CNC(=O)Cc3cccc(O)c3)O2)cc1 [Compound 150, (2R,4S,5R,6R)-6-((1R,2R)-1,2-dihydroxy-3-(2-(3-hydroxyphenyl)acetamido)propyl)-4-hydroxy-5-(2-hydroxyacetamido)-2-((4-(prop-2-yn-1-yloxy)benzyl)oxy)tetrahydro-2H-pyran-2-carboxylic acid]
1 to 10 | 1 to 10 | 1 to 10 | C#CCCCCCCc1cn([C@]2(C(=O)O)C[C@H](O)[C@@H](NC(=O)CO)[C@H]([C@H](O)[C@H](O)CNC(=O)Cc3cccc(O)c3)O2)nn1 [Compound 147, (2R,4S,5R,6R)-6-((1R,2R)-1,2-dihydroxy-3-(2-(3-hydroxyphenyl)acetamido)propyl)-4-hydroxy-5-(2-hydroxyacetamido)-2-(4-(oct-7-yn-1-yl)-1H-1,2,3-triazol-1-yl)tetrahydro-2H-pyran-2-carboxylic acid]
< 1 | < 1 | < 1 | C#CCOCCNc1c(NCCCCCCO[C@]2(C(=O)O)C[C@H](O)[C@@H](NC(=O)CO)[C@H]([C@H](O)[C@H](O)CNC(=O)Cc3ccc(C(F)F)cc3)O2)c(=O)c1=O [Compound 216, (2R,4S,5R,6R)-6-((1R,2R)-3-(2-(4-(difluoromethyl)phenyl)acetamido)-1,2-dihydroxypropyl)-2-((6-((3,4-dioxo-2-((2-(prop-2-yn-1-yloxy)ethyl)amino)cyclobut-1-en-1-yl)amino)hexyl)oxy)-4-hydroxy-5-(2-hydroxyacetamido)tetrahydro-2H-pyran-2-carboxylic acid]
